4 molecules from patent publication US20080269202A1, “Novel 2,3-benzodiazepine derivatives and their use as antipsychotic agents” (Teva Pharmaceutical Industries Ltd., priority 2007, published 2008) can be followed below.

The subject of data set [1] is apomorphine-induced climbing. Description: apomorphine-induced climbing test in mice. The format is in vivo, CD1 mice. The conditions noted are these: Mus musculus, read-out: Climbing ED50 (mg/kg ip.). On the procedure: (§1) Anti-apomorphine effects were investigated in the climbing test in mice mediated through the mesolimbic and stereotypy test in rats mediated through the nigrostriatal system. Conventional antipsychotics antagonize both apomorphine-induced behaviours, while known atypical antipsychotics are weaker against apomorphine stereotypy.
The climbing test was carried out according to Protais et al. (Protais, P. et al. Psychopharmacologia, 1976, 50, 1.) Stereotyped behavior was induced in food deprived (for 16 hours) male CD1 mice weighing 20-25 g body by apomorphine HCl (SIGMA) in a s.c. dose of 2 mg/kg. Mice were placed individually into cylinders having 12 cm diameter and consisting of vertical bars of 2 mm diameter where apomorphine treated animals tended to adopt a vertical position in contrary to vehicle treated controls. Test substances were applied ip. 30 min before apomorphine.
10 and 20 min after apomorphine treatment the climbing behaviour was evaluated by scores of 0-2. 10 mice/group were used. The scores of the two readings were summed individually, meaned and compared to the control. The ED50 values were calculated by Litchfield-Wilcoxon's method (Litchfield Jr. J. T., Wilcoxon, F. J. Pharmacol. Exp. Ther. 1949, 96, 49,).

Data set [2] has as its system apomorphine-induced stereotyped behavior. Description: apomorphine-induced stereotypy. The format is in vivo, CD1 mice. The conditions noted are these: Mus musculus, read-out: Stereotypy ED50 (mg/kg po.).
Source text: as §1
Apomorphine-induced stereotypy was investigated according to Costall and Naylor (B. Costall and R. J. Naylor, Eur. J. Pharmacol. 1972, 18, 95) in male CD1 mice of 20-25 g body weight after 16 hours deprivation of food. 30 min before treatment mice were individually placed into small, transparent acrylic cages for habituation. Test substances were administered orally in a volume of 0.1 ml/10 g. 30 min later mice were treated with apomorphine HCl (SIGMA) in a subcutaneous dose of 2 mg/kg. […] The scores were summed individually, meaned and compared to the control group. The ED50 values were calculated by Litchfield-Wilcoxon's method (J. Pharmacol. Exp. Ther. 1949, 96, 49,).

The target of another data set is T1, Melatonin (MT2) receptor (Homo sapiens, UniProt P49286).
T1 sequence (P49286 1-362): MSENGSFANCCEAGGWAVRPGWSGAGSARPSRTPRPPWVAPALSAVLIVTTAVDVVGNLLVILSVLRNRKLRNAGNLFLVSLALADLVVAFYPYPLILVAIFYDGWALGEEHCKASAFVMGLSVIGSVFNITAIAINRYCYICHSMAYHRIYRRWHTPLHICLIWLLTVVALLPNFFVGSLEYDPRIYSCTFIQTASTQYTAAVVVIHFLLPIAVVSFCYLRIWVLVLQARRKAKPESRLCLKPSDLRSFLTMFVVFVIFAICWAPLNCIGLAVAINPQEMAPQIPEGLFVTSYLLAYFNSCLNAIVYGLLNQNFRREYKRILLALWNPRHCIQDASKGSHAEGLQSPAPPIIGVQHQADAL
Kind of data set: in vitro inhibition, melatonin (MT2) receptor. As to conditions: conc: 10 μM. Format: binding.

In data set [3] the test system is conditioned avoidance responses. Description: conditioned avoidance: pole jumping test in rats. Format: in vivo, Long-Evans rats. An excerpt: For measuring the antipsychotic potential in a non-perturbed dopamine system the pole jumping assay was used (Cook, L., Catania, A. C. Fed. Proc. 1964, 23, 818.)
This method is an active avoidance learning test. Long-Evans rats, weighing 250-450 g, were used in the experiments. Rats are placed in a box (25×25×25 cm) on a grid floor in the center of which there is a pole. After a latency period, light is turned on for a given time then the floor is electrified to deliver an unpleasant footshock. Rats may learn to avoid the shock by jumping up to grasp the pole. As soon as the rat jumps up the light and shock are turned off. Each light-on period lasted for 15 s, shock time for 30 s with an intertrial interval of 15 s. 30 such trials per day were repeated during the learning period until animals reach a minimum of 80% avoidance rate. During the experimental sessions 20 trials/day were run. Test substances were administered ip. in a volume of 0.25 ml/100 g body weight. Significances were calculated by Student's t test.

Data set [4] deals with central dopaminergic receptors (Homo sapiens, UniProt P21728). Description: in vitro binding profile to central dopaminergic receptors (Table 3). The conditions noted are these: human recombinant CHO cells, ligand [3H]SCH-23390; read-out: D1 binding. The text has this:
(§2) The new 2,3-benzodiazepine atypical antipsychotic agents of formula (I) of the present invention influence dopaminergic neurotransmission by a unique indirect fashion, differently from both the first and second generation antipsychotics. The in vitro binding profile of these compounds (Table 3) differs from that of the first generation antipsychotics which bind to dopaminergic receptors and second generation antipsychotics, representatives of which show affinity for dopaminergic, serotonergic, or adrenergic receptors.

In data set [5] the target is T2, central dopaminergic receptors (Homo sapiens, UniProt P21917).
T2 sequence (P21917 1-419): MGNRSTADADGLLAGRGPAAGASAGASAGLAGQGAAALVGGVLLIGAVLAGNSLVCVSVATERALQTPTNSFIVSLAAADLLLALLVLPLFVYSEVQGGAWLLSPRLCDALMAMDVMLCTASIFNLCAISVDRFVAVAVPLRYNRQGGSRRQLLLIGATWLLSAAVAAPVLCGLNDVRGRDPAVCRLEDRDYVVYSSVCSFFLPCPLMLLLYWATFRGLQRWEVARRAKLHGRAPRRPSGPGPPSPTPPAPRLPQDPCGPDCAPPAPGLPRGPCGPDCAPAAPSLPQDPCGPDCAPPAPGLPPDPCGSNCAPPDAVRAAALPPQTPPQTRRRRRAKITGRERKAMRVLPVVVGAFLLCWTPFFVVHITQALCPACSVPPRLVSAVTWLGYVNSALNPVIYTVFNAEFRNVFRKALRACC
The description is as above. As to conditions: human recombinant CHO-K1 cells, ligand [3H]spiperone; read-out: D4 binding.
Source text: as §2

The target of data set [6] is central dopaminergic receptors (Rattus norvegicus, UniProt P61169). The data set is described as above. As to conditions: rat striatal membranes, ligand [3H]sulpirid; read-out: D2 binding.
Chain of central dopaminergic receptors (Rattus norvegicus, UniProt P61169) (P61169 whole entry): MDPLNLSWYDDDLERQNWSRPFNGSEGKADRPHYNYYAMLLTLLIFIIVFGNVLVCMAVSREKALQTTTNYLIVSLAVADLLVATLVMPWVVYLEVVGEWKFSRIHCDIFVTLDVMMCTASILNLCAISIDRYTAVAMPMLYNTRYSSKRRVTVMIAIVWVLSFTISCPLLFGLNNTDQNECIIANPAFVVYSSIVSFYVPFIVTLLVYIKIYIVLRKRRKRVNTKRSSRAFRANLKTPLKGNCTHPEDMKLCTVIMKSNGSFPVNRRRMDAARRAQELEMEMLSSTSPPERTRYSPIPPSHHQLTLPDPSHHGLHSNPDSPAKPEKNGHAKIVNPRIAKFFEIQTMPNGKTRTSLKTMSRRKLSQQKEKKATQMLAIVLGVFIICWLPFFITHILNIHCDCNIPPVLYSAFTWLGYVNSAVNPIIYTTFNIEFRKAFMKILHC
Source text: as §2

For data set [7], the target named is central dopaminergic receptors (Homo sapiens, UniProt P35462). Described as above. The conditions noted are these: human recombinant CHO cells, ligand [3H]spiperone (footnote prints D2); read-out: D3 binding.
Chain of central dopaminergic receptors (Homo sapiens, UniProt P35462) (P35462 whole entry): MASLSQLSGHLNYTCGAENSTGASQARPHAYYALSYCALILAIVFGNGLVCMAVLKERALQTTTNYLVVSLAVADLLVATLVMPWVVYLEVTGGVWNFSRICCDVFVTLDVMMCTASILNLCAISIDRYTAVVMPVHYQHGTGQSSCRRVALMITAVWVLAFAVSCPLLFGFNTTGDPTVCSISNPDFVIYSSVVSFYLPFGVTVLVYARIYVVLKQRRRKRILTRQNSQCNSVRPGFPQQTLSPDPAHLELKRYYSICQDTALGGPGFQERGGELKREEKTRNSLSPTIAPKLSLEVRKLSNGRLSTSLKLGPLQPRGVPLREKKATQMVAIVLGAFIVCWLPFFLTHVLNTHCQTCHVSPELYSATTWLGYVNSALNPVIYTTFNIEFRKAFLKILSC
Source text: as §2

Where [8] appears, read: mice, ip. 30 min before apomorphine 2 mg/kg s.c.
Setting [9] is: mice, po. 30 min before apomorphine 2 mg/kg s.c.

Read-outs that look alike come from different tables or passages of the source.

Chain of central dopaminergic receptors (Homo sapiens, UniProt P21728) (P21728 whole entry): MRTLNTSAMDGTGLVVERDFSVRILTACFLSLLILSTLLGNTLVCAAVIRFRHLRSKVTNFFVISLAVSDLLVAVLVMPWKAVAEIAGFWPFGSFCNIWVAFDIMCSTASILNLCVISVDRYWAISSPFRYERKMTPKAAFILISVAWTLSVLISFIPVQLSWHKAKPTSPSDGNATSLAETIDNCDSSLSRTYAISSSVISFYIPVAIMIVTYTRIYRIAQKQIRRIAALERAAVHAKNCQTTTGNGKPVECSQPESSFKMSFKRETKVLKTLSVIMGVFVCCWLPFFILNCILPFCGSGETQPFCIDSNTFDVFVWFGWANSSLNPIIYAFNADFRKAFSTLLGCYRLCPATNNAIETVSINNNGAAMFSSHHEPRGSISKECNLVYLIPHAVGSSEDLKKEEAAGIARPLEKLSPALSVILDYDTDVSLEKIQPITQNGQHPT

As for `CNC(=O)N1N=C(c2ccc(N)cc2)c2cc(OC)c(OC)cc2C[C@H]1C` [Example 121], the melting point was in the range of 140 to 144 °C. In data set [1], the ED50 was 4.31 mg/kg. Moreover, in [2], the ED50 was determined as 3.54 mg/kg. The molecule also showed an inhibition at 10 µM against Melatonin (MT2) receptor of 80%. Moreover, the “MED (mg/kg ip), minimal effective dose (stat. sign.)” value (shortened to “MED (mg/kg ip)”) in data set [3] stood at 5 mg/kg. Further, the Ki in [4] is over 10 µM. In addition, in data set [5], the Ki is over 10 µM. In addition, the Ki in data set [6] is over 10 µM. The Ki in data set [7] is over 10 µM.

As for `COc1cc2c(cc1OC)C(c1ccc(N)c(C)c1)=NN(c1nncs1)[C@H](C)C2` [Example 110], the melting point is 143 °C. Moreover, the ED50 in [1] (setting [8]) is 14.6 mg/kg. Also, the ED50 in data set [2] (setting [9]) worked out at 3.5 mg/kg. At Melatonin (MT2) receptor, this molecule registered an inhibition at 10 µM of 95%. In addition, the “MED (mg/kg ip)” value in data set [3] turned out to be 2 mg/kg. In addition, the Ki in [4] was over 10 µM. The Ki in data set [5] was over 10 µM. For the same molecule, in data set [6], the Ki was over 10 µM. In addition, the Ki in [7] is over 10 µM.

In the case of `COc1cc2c(cc1OC)C(c1ccc(N)c(C)c1)=NN(c1ncon1)[C@H](C)C2` [Example 104], the ED50 was found to be 7.7 mg/kg in data set [1] (setting [8]) and 6.97 mg/kg in data set [2] (setting [9]). Also, on Melatonin (MT2) receptor, the inhibition at 10 µM was 80%. The “MED (mg/kg ip)” value in data set [3] is listed as 15 mg/kg. In addition, the Ki in data set [4], in [5], in data set [6] and in data set [7] was over 10 µM in each case.

`CNC(=O)N1N=C(c2ccc(N)c(C)c2)c2cc(OC)c(OC)cc2C[C@H]1C` [Example 123] came in with a melting point of 147 °C. The ED50 in data set [1] stood at 9.2 mg/kg. Moreover, in [2], the ED50 was 7.52 mg/kg. Also, on Melatonin (MT2) receptor, testing at 10 µM gave an inhibition of 64%. Further, in data set [3], the “MED (mg/kg ip)” value amounted to 2 mg/kg. Further, the Ki in data set [4] was over 10 µM. Also, in data set [5], the Ki was over 10 µM. The Ki in data set [6] is over 10 µM. Further, the Ki in [7] was over 10 µM.
